This note sets out measurements from publication PMC11326411, “PET imaging of [52 Mn]Mn-DOTATATE and [52 Mn]Mn-DOTA-JR11” (Research Square, 2024).

The tissue uptake is the share of the injected amount in each gram of the tissue.

One data set has as its system AR42J cells. The data set is described as follows: Cell internalization assay in AR42J cells. Type of data set: cell-based, rat. To be noted: for internalization fraction (of total activity): 2 h incubation. As to the method:
At each time point, the media was removed, and cells were washed 3 times with ice-cold PBS. To determine the surface bound fraction, 0.5 mL of 0.1 M citric acid (pH 5) was added to each well and incubated for 5 min. The fraction was collected into a microcentrifuge tube followed by addition of 0.5 mL gentle wash of PBS. To determine the internalized activity, 0.5 mL of 0.2 M NaOH was added to each well and incubated at 37°C for 5 min. This fraction was collected in a separate tube followed by addition of 0.5 mL of PBS wash. The final results were expressed as a percentage of the total activity that was present in each of the two fractions.

Another data set concerns SSTR2 + AR42J cells. The data set is described as follows: Cell uptake in AR42J cells. Type of data set: cell-based, rat. As to the method:
(§1) 1×10^5 AR42J, A549, and MCF-7 cells were seeded onto 24-well plates (n = 6) and incubated at 37°C 48 h before study. […] The cells were incubated at 37°C under 5% CO2 for 2 h. Following incubation, the media was removed, and the cells were washed 3 times with ice-cold PBS. 500 μL of 0.2 M NaOH was added to detach the cells before collection into microcentrifugetubes followed by a 500 μL wash of PBS. Associated radioactivity was counted on a HIDEX (Turku, Finland) AGM gamma counter.
(§2) To normalize the counts to the total protein amount, a BCA protein assay (ThermoFisher Scientific) was performed, and the final data reported in % cell uptake/mg of protein.

In the next data set the test system is A549 cells. The data set is described as follows: Cell uptake in A549 cells. The data set is classed as cell-based, human. Particulars: A549, 0.5 nM, 2 h, 37°C, per mg protein; Fig. 3A study. On the procedure: as §1, §2
Data set [1] in a line: Stability of the radioligands in mouse serum. To be noted: 37°C, 5 days post incubation, radio-TLC.
Experimental: At the specified time points, 40 μL of serum/radioligand mixture was collected and combined with an equal amount of methanol to separate serum proteins, as described in a previously published protocol on metabolite extraction and protein removal [19]. The supernatant was analyzed using both radio TLC and radio HPLC, as described above to determine the percentage intact complex.
The nature of the next data set: in vivo. Particulars: mouse, total radioactivity, Biodistribution.
The test system of the next data set is MCF-7 cells. Nature of the data set: Cell uptake in MCF-7 cells. Type of data set: cell-based, human. Particulars: MCF-7, 0.5 nM, 2 h, 37°C, per mg protein; Fig. 3A study. As to the method: as §1, §2
Setting [2] is: 2 h incubation at 37°C, comparative study Fig. 4A.

Where a SMILES comes first, the peptide text is derived from it. Bridges are numbered along the chain shown (N, C = ends). [ ]: non-standard residue; d: D form. The star is where a group is joined. DOTA = O=C(O)CN1CCN(CC(=O)O)CCN(CC(=O)*)CCN(CC(=O)O)CC1; dPhe(4-NHCONH2) = NC(=O)Nc1ccc(C[C@@H](N)C(=O)O)cc1; Dihydroorotyl(S) = O=C1C[C@@H](C(=O)*)NC(=O)N1; Phe(4-Cl) = N[C@@H](Cc1ccc(Cl)cc1)C(=O)O; Phe(4-NH2) = Nc1ccc(C[C@H](N)C(=O)O)cc1 Bounds are passed on as bounds.

Experimental for in vivo: Subcutaneous tumor xenograft models for AR42J were established by implanting 1×10^6 cells in complete cell media subcutaneously into the right shoulder 3–4 weeks (tumor average diameter of between 5–7 mm) before study.
Mice (n = 4 per group) were anesthetized with 2.5% isoflurane in oxygen and were injected via the retroorbital sinus. After injection, at 4, 24, and 48 h, mice were imaged on a Sofie GNEXT PET/CT small animal scanner (Sofie Biosciences, Dulles, VA, USA). At each time point, 30 min of PET data were acquired followed by a 3-min CT at 80 kVp for anatomical reference. At each time point post imaging, mice were euthanized, and organs were collected, weighed, and counted for associated radioactivity on gamma counter. Radioactivity uptake was calculated as the percent injected dose per gram of tissue (% ID/g).

On to `C[C@@H](O)[C@@H]1NC(=O)[C@H](CCCCN)NC(=O)[C@@H](Cc2ccc(NC(N)=O)cc2)NC(=O)[C@H](Cc2ccc(NC(=O)[C@@H]3CC(=O)NC(=O)N3)cc2)NC(=O)[C@H](NC(=O)[C@H](Cc2ccc(Cl)cc2)NC(=O)CN2CCN(CC(=O)O)CCN(CC(=O)O)CCN(CC(=O)O)CC2)CSSC[C@@H](C(=O)N[C@H](Cc2ccc(O)cc2)C(N)=O)NC1=O` [[^52Mn]Mn-DOTA-JR11] ({DOTA}-[Phe(4-Cl)][dC][Phe(4-NH2)](Dihydroorotyl(S))[dPhe(4-NHCONH2)]KTC[dY]-NH2; disulfide 2-7 (inferred); C-terminus assumed), for which, in the data set with AR42J cells, the total activity internalized is 20.85 ± 0.59% and the “internalization fraction (of total activity)” value worked out at 20.85 ± 0.59%. The cell uptake in the data set on SSTR2 + AR42J cells (setting [2]) was found to be 7.13 ± 0.38 %/ mg.

`C[C@@H](O)[C@H](NC(=O)[C@@H]1CSSC[C@H](NC(=O)[C@@H](Cc2ccccc2)NC(=O)CN2CCN(CC(=O)O)CCN(CC(=O)O)CCN(CC(=O)O)CC2)C(=O)N[C@@H](Cc2ccc(O)cc2)C(=O)N[C@H](Cc2c[nH]c3ccccc23)C(=O)N[C@@H](CCCCN)C(=O)N[C@@H]([C@@H](C)O)C(=O)N1)C(=O)O` [[^52Mn]Mn-DOTATATE]: the cell uptake in the data set on A549 cells worked out at 4.07 ± 0.88 % /mg; in the data set with MCF-7 cells it was 2.30 ± 0.20 % /mg; with SSTR2 + AR42J cells (0.5 nM, 2 h, 37°C, per mg protein, Fig. 3A study) it was 18.25 ± 1.31 % /mg; in the data set on SSTR2 + AR42J cells (setting [2]), 11.95 ± 0.71 %/ mg. This compound displayed an intact complex in data set [1] greater than 95%. This compound also had a total activity internalized in the data set with AR42J cells of 53.13 ± 1.83%. Moreover, in the data set with AR42J cells, the “internalization fraction (of total activity)” value came to 53.13 ± 1.83%. Also, the tissue uptake at 4 h amounted to 0.91 ± 0.05 %ID/g in the data set “in vivo” (Blood (μL)), 0.52 ± 0.19 %ID/g in “in vivo” (Fat) and 1.32 ± 0.46 %ID/g in the data set “in vivo” (Small Intestines).
